Test results as given in patent US20230331739A1, “INDOLO HEPTAMYL OXIME ANALOG CRYSTAL AS PARP INHIBITOR AND METHOD FOR PREPARING SAME” (CHIA TAI TIANQING PHARMACEUTICAL GROUP CO., LTD., priority 2020, published 2023).
Where two headings read alike, the source gives them in different places.

Assays:
[1] = Body weight change in the MDA-MB-436 xenograft study; type: in vivo; details: three dose groups (12.5, 25, 50 mg/kg PO QD)
From the text: (§1) 3. Daily observation of animals: the animals were monitored daily for health and death, and routine examinations include observation of the effect on tumor growth and the therapy on the daily performance of the animals, such as behavioral activities, food and water intake, change in body weight, appearance, or other abnormal conditions.
1. The body weights of the animals were used as a reference index for indirectly measuring the toxicity of the drug. In this model, no other morbidity or mortality occurred during the study.

[2] = test system: human breast cancer MDA-MB-436 cell xenograft tumor; test: In vivo pharmacodynamic study in subcutaneous MDA-MB-436 xenograft tumor model; set-up: species or system BALB/c nude mouse; details: for Tumor volume (day 27): Mean ± SEM; for T/C / TGI: day 27
From the text: Objective: To study the in vivo efficacy of the test compound in BALB/c nude mouse model with subcutaneous human breast cancer MDA-MB-436 cell xenograft tumor.
Materials: Age and body weight: female BALB/c nude mice, aged 6-8 weeks, 18-22 g. The study started after 3-7 days of adaptive feeding. The animal information card of each cage was labeled with the following information about the animals: number, sex, strain, receipt date, regime, study number, group and start of treatment. All the cages, padding and drinking water were sterilized before use. The cages, feed and drinking water were refreshed twice a week. The animals were identified with ear tags. Test samples: Nirapariband and compound 1. All the test samples were prepared with 10% DMSO+90% (20% HP-β-CD) as vehicle, and the blank control group was administered with the vehicle alone.
1. Cell culturing: Human breast cancer MDA-MB-436 cells (ATCC, Manassas, VA, catalog No.: HTB-130) were cultured in an RPMI-1640 culture medium containing 10% fetal bovine serum and 1% Anti-anti through in vitro monolayer culture in an incubator at 37° C./5% CO2. The cells were digested with trypsin-EDTA twice a week for passaging as per conventional practice. At a cell saturation of 80%-90% and a required number, the cells were collected, counted and grafted.
2. Tumor cell grafting (tumor grafting): 0.2 mL (1×10^7 cells) of MDA-MB-436 cells (along with matrigel in a volume ratio of 1:1) was subcutaneously grafting on the right back of each mouse, and the mice were randomly divided into groups for administration after the mean tumor volume was approximately 318 mm^3.
as §1
4. Tumor measurement and experimental indexes: the experimental indexes were to investigate whether the tumor growth was inhibited or delayed or the tumor was cured. Tumor diameters were measured twice weekly using a vernier caliper. The tumor volume was calculated using the following formula: V=0.5 a×b^2, where a and b represent the long diameter and short diameter of the tumor, respectively. The anti-tumor efficacy of the compound was evaluated by TGI (%) or relative tumor proliferation rate T/C (%). TGI (%) refers to the tumor growth inhibition. Calculation of TGI (%): TGI (%)=[(1−(mean tumor volume at the end of administration of a treatment group−mean tumor volume at the start of administration of the treatment group))/(mean tumor volume at the end of treatment of the solvent control group−mean tumor volume at the start of treatment of the solvent control group)]×100%. The calculation formula for relative tumor proliferation rate T/C (%) was as follows: T/C (%)=TRTV/CRTV×100% (TRTV: RTV of treatment group; CRTV: RTV of negative control group). Relative tumor volume (RTV) was calculated based on the results of tumor measurement. The calculation formula was: RTV=Vt/V0, where V0 was the mean tumor volume measured at the time of grouping and administration (i.e., do), Vt was the mean tumor volume at a certain measurement, and the data of TRTV and CRTV were obtained on the same day.
5. Statistical analysis: including mean and standard error of mean (SEM) of tumor volume at each time point in each group. […] The experimental data were analyzed using one-way ANOVA and Games-Howell method. All the data were analyzed using SPSS 17.0. p<0.05 was defined as significance.

CYP3A4-M = CYP3A4-M (Homo sapiens (Human), UniProt P08684); test: Inhibition against cytochrome P450 isoenzymes, CYP3A4-M; type: in vitro ADME; details: human liver microsomes
Method: The inhibition of the test compound against different subtypes of the human cytochrome P450 isoenzyme was determined. The test compound, a standard inhibitor (100×final concentration) and a mixed substrate working solution were prepared; the microsomes frozen in a refrigerator at −80° C. were taken out and thawed. […]

[3] = Single-dose pharmacokinetic study in mice; type: in vivo, male C57BL/6 mice
Method: Objectives: To evaluate the pharmacokinetic behavior in male C57BL/6 mice and to determine the drug concentrations of the compound in the plasma, liver and cerebrospinal fluid after a single dose.
Procedures: Healthy adult male C57BL/6 mice were selected for intragastric administration. The candidate compound was mixed with an appropriate amount of 10% DMSO/90% (20% hydroxypropyl-@-cyclodextrin), vortexed and sonicated to prepare a 0.5 mg/mL clear solution for later use. After the mice were administered intravenously at 1 mg/kg and orally at 5 mg/kg, whole blood was collected at certain time points. Plasma was separated, and liver and cerebrospinal fluid were collected. After pretreatment of the samples, the drug concentration was measured by LC-MS/MS, and pharmacokinetic parameters were calculated using Phoenix WinNonlin software.

[4] = male, C57BL/6, mouse, plasma, IV: 1 mg/kg PO: 5 mg/kg

Sequence of CYP3A4-M (P08684 whole entry): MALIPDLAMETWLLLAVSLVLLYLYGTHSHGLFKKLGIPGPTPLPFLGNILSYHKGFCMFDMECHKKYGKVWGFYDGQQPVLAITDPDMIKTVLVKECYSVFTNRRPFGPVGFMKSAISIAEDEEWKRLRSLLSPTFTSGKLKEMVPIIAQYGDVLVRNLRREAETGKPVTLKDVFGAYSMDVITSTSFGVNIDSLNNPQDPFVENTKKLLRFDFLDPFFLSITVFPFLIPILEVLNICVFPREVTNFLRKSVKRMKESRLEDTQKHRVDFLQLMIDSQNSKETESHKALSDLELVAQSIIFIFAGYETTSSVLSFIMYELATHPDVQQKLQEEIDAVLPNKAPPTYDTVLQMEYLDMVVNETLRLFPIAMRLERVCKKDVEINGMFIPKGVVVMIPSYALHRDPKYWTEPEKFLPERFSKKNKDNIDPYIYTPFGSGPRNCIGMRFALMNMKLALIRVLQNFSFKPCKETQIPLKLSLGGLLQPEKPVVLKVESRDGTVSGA

Compound: C[C@]1(c2ccc(-c3[nH]c4cc(F)cc5c4c3CONC5=O)cc2)CCCN1 [Compound 1]
- change in body weight [1]: little change in body weight
- Tumor volume (day 27) ([2]; 12.5 mg/kg PO QD × 28 days): 377 ± 149 mm^3
- T/C ([2]; 12.5 mg/kg PO QD × 28 days): 23.79%
- TGI ([2]; 12.5 mg/kg PO QD × 28 days): 95.34%
- Tumor volume (day 27) ([2]; 25 mg/kg PO QD × 28 days): 132 ± 32 mm^3
- T/C ([2]; 25 mg/kg PO QD × 28 days): 8.31%
- TGI ([2]; 25 mg/kg PO QD × 28 days): 114.69%
- Tumor volume (day 27) ([2]; 50 mg/kg PO QD × 28 days): 91 ± 14 mm^3
- T/C ([2]; 50 mg/kg PO QD × 28 days): 5.76%
- TGI ([2]; 50 mg/kg PO QD × 28 days): 117.86%
- IC50 (CYP3A4-M): 32.9 µM
- Maximum concentration ([3]; IV: 1 mg/kg PO: 5 mg/kg): 240 nM
- AUC(0-t) ([3]; male, C57BL/6, mouse, plasma, IV 1 mg/kg, read-out: AUC0-last (intravenous injection)): 0.958 µM·h
- bioavailability [3, 4]: 24.8%
- half-life [3, 4]: 3.02 h
- Vd ([3]; male, C57BL/6, mouse, plasma, IV: 1 mg/kg PO: 5 mg/kg, read-out: Apparent volume of distribution): 9.44 L/kg
- clearance ([3]; male, C57BL/6, mouse, plasma, IV: 1 mg/kg PO: 5 mg/kg, read-out: Clearance rate): 41 mL/min/kg
- AUC(0-t) ([3]; male, C57BL/6, mouse, plasma, PO 5 mg/kg, read-out: AUC0-last (oral)): 1.19 µM·h
